Our source for the inhibition and IC50 values is patent US12459899B2, “Isoquinolinone derivatives, method for preparing the same, and pharmaceutical composition for preventing or treating poly(ADP-ribose) polymerase-1-related diseases, comprising the same as active ingredient” (DIGMBIO. INC., priority 2019, dated 2025).

A word on the IC50: it is the point on the concentration scale where inhibition reaches its midpoint.

Structures can show the parent of a compound that is named as a salt. Some results are limits rather than exact numbers.

In one experiment the target is PARP-1 (poly[ADP-ribose] polymerase 1) enzyme (Homo sapiens (Human), UniProt P09874). Put plainly: PARP-1 (poly[ADP-ribose] polymerase 1) enzyme inhibitory ability, Trevigen assay kit. Format: biochemical. Conditions: 1 nM compound; read-out: PAR P-1 Inhibitory ability at 1 nM. Summed up: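 Human PARP-1 activity was measured with a Trevigen assay kit in histone-coated 96-well plates rehydrated with 50 μL of 1×PARP buffer for 30 minutes. Enzyme (0.5 unit/well) and compound were preincubated 10 minutes at room temperature, then 25 μL of 1×PARP cocktail with biotinylated NAD and activated DNA was added for 1 hour.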
PARP-1 (poly[ADP-ribose] polymerase 1) enzyme, sequence (P09874 whole entry): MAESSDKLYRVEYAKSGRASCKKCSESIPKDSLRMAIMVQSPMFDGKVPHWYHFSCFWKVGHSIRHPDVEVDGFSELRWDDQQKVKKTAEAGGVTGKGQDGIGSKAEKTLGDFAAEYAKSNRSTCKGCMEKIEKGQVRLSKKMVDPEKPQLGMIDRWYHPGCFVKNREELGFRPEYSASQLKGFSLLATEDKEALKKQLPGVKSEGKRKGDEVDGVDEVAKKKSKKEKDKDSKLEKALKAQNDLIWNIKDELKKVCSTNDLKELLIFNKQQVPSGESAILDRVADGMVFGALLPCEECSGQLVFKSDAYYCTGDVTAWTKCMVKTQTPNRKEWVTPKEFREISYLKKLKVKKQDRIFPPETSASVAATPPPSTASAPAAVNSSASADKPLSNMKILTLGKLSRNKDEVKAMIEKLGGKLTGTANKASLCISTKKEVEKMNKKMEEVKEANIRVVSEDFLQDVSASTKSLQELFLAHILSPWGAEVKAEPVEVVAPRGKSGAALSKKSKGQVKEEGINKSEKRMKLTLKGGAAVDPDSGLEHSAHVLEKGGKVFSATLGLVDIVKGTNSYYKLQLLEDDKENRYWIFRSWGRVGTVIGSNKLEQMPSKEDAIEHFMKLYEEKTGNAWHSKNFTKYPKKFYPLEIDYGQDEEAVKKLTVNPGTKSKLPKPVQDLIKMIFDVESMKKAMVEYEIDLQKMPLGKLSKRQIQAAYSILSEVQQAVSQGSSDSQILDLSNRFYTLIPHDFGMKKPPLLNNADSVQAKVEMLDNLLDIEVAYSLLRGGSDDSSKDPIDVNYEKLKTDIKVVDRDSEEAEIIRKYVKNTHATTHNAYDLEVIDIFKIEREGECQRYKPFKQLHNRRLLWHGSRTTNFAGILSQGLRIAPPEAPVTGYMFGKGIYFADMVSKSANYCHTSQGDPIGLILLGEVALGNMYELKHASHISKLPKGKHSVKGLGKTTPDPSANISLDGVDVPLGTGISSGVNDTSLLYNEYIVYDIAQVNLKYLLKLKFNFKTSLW
Take `N#Cc1ccc(N2CCN(C(=O)CCc3cc4cccc(F)c4c(=O)[nH]3)CC2)cn1` [Example 70, 5-(4-(3-(8-fluoro-1-oxo-1,2-dihydroisoquinolin-3-yl)propanoyl)piperazin-1-yl)picolinonitrile]: the inhibition at 0.001 µM is less than 50%.

On to `N#Cc1ccc(N2CCN(CCCc3cc4ncccc4c(=O)[nH]3)CC2)cn1` [Example 226, 5-(4-(3-(5-oxo-5,6-dihydro-1,6-naphthyridin-7-yl)propyl)piperazin-1-yl)picolinonitrile], for which the inhibition at 0.001 µM was less than 50%.

With `Cc1ccc(F)c2c(=O)[nH]c(CCCN3CC=C(c4ccc(F)cc4)CC3)cc12` [Example 53, 8-fluoro-3-(3-(4-(4-fluorophenyl)-3,6-dihydropyridin-1(2H)-yl)propyl)-5-methylisoquinolin-1(2H)-one], the inhibition at 0.001 µM was less than 50%.

`O=c1[nH]c(CCCN2CC=C(c3ccc(F)cc3)CC2)cc2ccc(F)cc12` [Example 48, 7-fluoro-3-(3-(4-(4-fluorophenyl)-3,6-dihydropyridin-1(2H)-yl)propyl)isoquinolin-1(2H)-one]: the inhibition at 0.001 µM was less than 50%.

As for `Cc1ccc(F)c2c(=O)[nH]c(CCC(=O)N3CCN(c4ccc(C(=O)O)cc4)CC3)cc12` [Example 147, 4-(4-(3-(8-fluoro-5-methyl-1-oxo-1,2-dihydroisoquinolin-3-yl)propanoyl)piperazin-1-yl)benzoic acid], the inhibition at 0.001 µM is less than 50%.

Take `O=C(CCc1cc2ccc(F)cc2c(=O)[nH]1)N1CC=C(c2ccc(F)cn2)CC1` [Example 103, 7-fluoro-3-(3-(5-fluoro-3′,6′-dihydro-[2,4′-bipyridine]-1′(2′H)-yl)-3-oxopropyl)isoquinolin-1(2H)-one]: the inhibition at 0.001 µM was less than 50%.

On to `Cc1ccc(F)c2c(=O)[nH]c(CCC(=O)N3CCC(Nc4ccc(C(F)(F)F)cc4)CC3)cc12` [Example 266, 8-fluoro-5-methyl-3-(3-oxo-3-(4-((4-(trifluoromethyl)phenyl)amino)piperidin-1-yl)propyl)isoquinolin-1(2H)-one], for which the inhibition at 0.001 µM was less than 50%.

For `O=c1[nH]c(CCCN2CCN(c3cccc(OC(F)(F)F)c3)CC2)cc2ccc(F)cc12` [Example 16, 7-fluoro-3-(3-(4-(3-(trifluoromethoxy)phenyl)piperazin-1-yl)propyl)isoquinolin-1(2H)-one], the inhibition at 0.001 µM is less than 50%.

In the case of `Cc1ccc(F)c2c(=O)[nH]c(CCCN3CCN(c4ccc(C#N)cc4)CC3)cc12` [Example 23, 4-(4-(3-(8-fluoro-5-methyl-1-oxo-1,2-dihydroisoquinolin-3-yl)propyl)piperazin-1-yl)benzonitrile], the inhibition at 0.001 µM is less than 50%.

As for `Cc1cc(F)cc2c(=O)[nH]c(CCCN3CCN(c4ccc(C#N)c(F)c4)CC3)cc12` [Example 38, 2-fluoro-4-(4-(3-(7-fluoro-5-methyl-1-oxo-1,2-dihydroisoquinolin-3-yl)propyl)piperazin-1-yl)benzonitrile], the inhibition at 0.001 µM is less than 50%.

As for `Cc1cc(F)cc2c(=O)[nH]c(CCC(=O)N3CCN(c4ccc(C#N)nc4)CC3)cc12` [Example 151, 5-(4-(3-(7-fluoro-5-methyl-1-oxo-1,2-dihydroisoquinolin-3-yl)propanoyl)piperazin-1-yl)picolinonitrile], the inhibition at 0.001 µM was less than 50%.

Consider `Cc1ccc(F)c2c(=O)[nH]c(CCC(=O)N3C4CCC3CN(c3ccc(C#N)cc3)C4)cc12` [Example 148, 4-(8-(3-(8-fluoro-5-methyl-1-oxo-1,2-dihydroisoquinolin-3-yl)propanoyl)-3,8-diazabicyclo[3.2.1]octan-3-yl)benzonitrile], for which the inhibition at 0.001 µM was less than 50%.

Take `N#Cc1ccc(N2CC3CCC(C2)N3CCCc2cc3ncccc3c(=O)[nH]2)cn1` [Example 229, 5-(8-(3-(5-oxo-5,6-dihydro-1,6-naphthyridin-7-yl)propyl)-3,8-diazabicyclo[3.2.1]octan-3-yl)picolinonitrile]: the inhibition at 0.001 µM was less than 50%.

Consider `Cc1ccc(F)c2c(=O)[nH]c(CCC(=O)N3CC(NC(=O)C4CC4)C3)cc12` [Example 275, N-(1-(3-(8-fluoro-5-methyl-1-oxo-1,2-dihydroisoquinolin-3-yl)propanoyl)azetidin-3-yl)cyclopropanecarboxamide], for which the inhibition at 0.001 µM is less than 50%.

For the compound `Cc1cc(F)cc2c(=O)[nH]c(CCC(=O)N3CCN(c4cccc(F)c4)CC3)cc12` [Example 167, 7-fluoro-3-(3-(4-(3-fluorophenyl)piperazin-1-yl)-3-oxopropyl)-5-methylisoquinolin-1(2H)-one], the inhibition at 0.001 µM is less than 50%.

On to `O=c1[nH]c(CCCN2CCN(c3cccc(Cl)c3)CC2)cc2ccc(F)cc12` [Example 17, 3-(3-(4-(3-chlorophenyl)piperazin-1-yl)propyl)-7-fluoroisoquinolin-1(2H)-one], for which the inhibition at 0.001 µM was less than 50%.

On to `N#Cc1ccc(N2CCN(C(=O)CCc3cc4ncccc4c(=O)[nH]3)CC2)cn1` [Example 243, 5-(4-(3-(5-oxo-5,6-dihydro-1,6-naphthyridin-7-yl)propanoyl)piperazin-1-yl)picolinonitrile], for which the inhibition at 0.001 µM was less than 50%.

Regarding `CC(C)C(=O)N1CCN(C(=O)CCc2cc3ccc(F)cc3c(=O)[nH]2)CC1` [Example 188, 7-fluoro-3-(3-(4-isobutyrylpiperazin-1-yl)-3-oxopropyl)isoquinolin-1(2H)-one], the inhibition at 0.001 µM is less than 50%.

With `O=c1[nH]c(CCCN2C3CCC2CN(c2ccc(F)cc2)C3)cc2ncccc12` [Example 230], the inhibition at 0.001 µM was less than 50%.

With `O=c1[nH]c(CCCN2CC=C(c3ccc(F)cc3)CC2)cc2ncccc12` [Example 236, 7-(3-(4-(4-fluorophenyl)-3,6-dihydropyridin-1(2H)-yl)propyl)-1,6-naphthyridin-5(6H)-one], the inhibition at 0.001 µM was less than 50%.

Take `O=C(CCc1cc2cccc(F)c2c(=O)[nH]1)N1CCN(c2cccc(F)c2)CC1` [Example 89, 8-fluoro-3-(3-(4-(3-fluorophenyl)piperazin-1-yl)-3-oxopropyl)isoquinolin-1(2H)-one]: the inhibition at 0.001 µM was less than 50%.

For the compound `O=c1[nH]c(CCCN2CCN(c3ncccn3)CC2)cc2ccc(F)cc12` [Example 13, 7-fluoro-3-(3-(4-(pyrimidin-2-yl)piperazin-1-yl)propyl)isoquinolin-1(2H)-one], the inhibition at 0.001 µM is less than 50%.

Take `N#Cc1cc(F)cc(C2=CCN(C(=O)CCc3cc4ccc(F)cc4c(=O)[nH]3)CC2)c1` [Example 114, 3-fluoro-5-(1-(3-(7-fluoro-1-oxo-1,2-dihydroisoquinolin-3-yl)propanoyl)-1,2,3,6-tetrahydropyridin-4-yl)benzonitrile]: the inhibition at 0.001 µM is less than 50%.

`N#Cc1ccc(N2CC3CCC(C2)N3CCCc2cc3cccc(F)c3c(=O)[nH]2)nc1` [Example 203, 6-(8-(3-(8-fluoro-1-oxo-1,2-dihydroisoquinolin-3-yl)propyl)3,8-diazabicyclo[3.2.1]octan-3-yl)nicotinonitrile]: the inhibition at 0.001 µM was less than 50%.

As for `CC(C)C(=O)N1CCN(C(=O)CCc2cc3cccc(F)c3c(=O)[nH]2)CC1` [Example 186, 8-fluoro-3-(3-(4-isobutyrylpiperazin-1-yl)-3-oxopropyl)isoquinolin-1(2H)-one], the inhibition at 0.001 µM is less than 50%.

In the case of `N#Cc1ccc(F)cc1N1CCN(C(=O)CCc2cc3cccc(F)c3c(=O)[nH]2)CC1` [Example 81, 4-fluoro-2-(4-(3-(8-fluoro-1-oxo-1,2-dihydroisoquinolin-3-yl)propanoyl)piperazin-1-yl)benzonitrile], the inhibition at 0.001 µM was less than 50%.

`N#Cc1cc(F)cc(N2CCN(C(=O)CCc3cc4ccc(F)cc4c(=O)[nH]3)CC2)c1` [Example 119, 3-fluoro-5-(4-(3-(7-fluoro-1-oxo-1,2-dihydroisoquinolin-3-yl)propanoyl)piperazin-1-yl)benzonitrile]: the inhibition at 0.001 µM was less than 50%.

For `Cc1ccc(F)c2c(=O)[nH]c(CCC(=O)N3CCN(C(=O)[C@@H](N)Cc4ccccc4)CC3)cc12` [Example 195, 3-(3-(4-(L-phenylalanyl)piperazin-1-yl)-3-oxopropyl)-8-fluoro-5-methylisoquinolin-1(2H)-one hydrochloride], the inhibition at 0.001 µM is less than 50%.

Take `Cc1cc(F)cc2c(=O)[nH]c(CCC(=O)N3CCN(C(=O)C4CCCCC4)CC3)cc12` [Example 173, 3-(3-(4-(cyclohexanecarbonyl)piperazin-1-yl)-3-oxopropyl)-7-fluoro-5-methylisoquinolin-1(2H)-one]: the inhibition at 0.001 µM is less than 50%.

As for `O=C(CCc1cc2ccc(F)cc2c(=O)[nH]1)N1CC[C@@H](c2ccc(F)cc2)C1` [Example 117, (S)-7-fluoro-3-(3-(3-(4-fluorophenyl)pyrrolidin-1-yl)-3-oxopropyl)isoquinolin-1(2H)-one], the inhibition at 0.001 µM was less than 50%.

On to `N#Cc1ccc(C2=CCN(C(=O)CCc3cc4ccc(F)cc4c(=O)[nH]3)CC2)nc1` [Example 96, 1′-(3-(7-fluoro-1-oxo-1,2-dihydroisoquinolin-3-yl)propanoyl)-1′,2′,3′,6′-tetrahydro-[2,4′-bipyridine]-5-carbonitrile], for which the inhibition at 0.001 µM was less than 50%.

Consider `O=C(CCc1cc2cccc(F)c2c(=O)[nH]1)N1CC=C(c2ccccc2F)CC1` [Example 82, 8-fluoro-3-(3-(4-(2-fluorophenyl)-3,6-dihydropyridin-1(2H)-yl)-3-oxopropyl)isoquinolin-1(2H)-one], for which the inhibition at 0.001 µM is less than 50%.

Take `N#Cc1ccc(N2CCN(C(=O)CCc3cc4ncccc4c(=O)[nH]3)CC2)nc1` [Example 242, 6-(4-(3-(5-oxo-5,6-dihydro-1,6-naphthyridin-7-yl)propanoyl)piperazin-1-yl)nicotinonitrile]: the inhibition at 0.001 µM is less than 50%.

Staying with this experiment, now noted: PARP-1 enzyme activity.
Regarding `O=c1[nH]c(CCCN2CC=C(c3ccc(F)cc3)CC2)cc2ccc(F)cc12` [Example 48, 7-fluoro-3-(3-(4-(4-fluorophenyl)-3,6-dihydropyridin-1(2H)-yl)propyl)isoquinolin-1(2H)-one], the IC50 turned out to be 1.32 nM.

Consider `O=C(CCc1cc2ccc(F)cc2c(=O)[nH]1)N1CC=C(c2ccc(F)cn2)CC1` [Example 103, 7-fluoro-3-(3-(5-fluoro-3′,6′-dihydro-[2,4′-bipyridine]-1′(2′H)-yl)-3-oxopropyl)isoquinolin-1(2H)-one], for which the IC50 was found to be 0.91 nM.

In the case of `Cc1ccc(F)c2c(=O)[nH]c(CCCN3CCN(c4ccc(C#N)cc4)CC3)cc12` [Example 23, 4-(4-(3-(8-fluoro-5-methyl-1-oxo-1,2-dihydroisoquinolin-3-yl)propyl)piperazin-1-yl)benzonitrile], inhibition was half-maximal at 0.76 nM (IC50).

As for `Cc1cc(F)cc2c(=O)[nH]c(CCC(=O)N3CCN(c4ccc(C#N)nc4)CC3)cc12` [Example 151, 5-(4-(3-(7-fluoro-5-methyl-1-oxo-1,2-dihydroisoquinolin-3-yl)propanoyl)piperazin-1-yl)picolinonitrile], half-maximal inhibition (IC50) required 4.05 nM.

`N#Cc1ccc(N2CCN(C(=O)CCc3cc4ncccc4c(=O)[nH]3)CC2)nc1` [Example 242, 6-(4-(3-(5-oxo-5,6-dihydro-1,6-naphthyridin-7-yl)propanoyl)piperazin-1-yl)nicotinonitrile]: half-maximal inhibition (IC50) was put at 3.18 nM.
